Experimental data reported in US20260167638A1, “PHARMACEUTICAL COMPOUND, SALTS THEREOF, FORMULATIONS THEREOF, AND METHODS OF MAKING AND USING SAME” (Genentech, Inc., priority 2018, published 2026).
Values after ≈ are worked out from the molar mass of the structure shown. Values joined by “and” are separate entries in the source; they are usually repeats but may differ in a detail not shown here. Equal entries are not always repeated. One block for each compound: values may come before it.

Experiments:
[1] = Experimental determination of the pKa; format: physicochemical
[2] = Dissolution and precipitation in pH 6.5 phosphate buffer at 37° C. containing HPMC; format: physicochemical; conditions: aqueous buffer
Source text: The inclusion of HPMC in the tablet of Example 16 was to maintain the supersaturation of Compound I API after its mono-tosylate salt dissolves. […]

[3] = Solubility in pure water at 25° C. with PXRD of solid residues; format: physicochemical; conditions: for pH (24 hrs) / pH (1 hr): pH of solubility sample; for pH (24 hrs) / pH (1 hr) / S 24 hrs / S 1 hr: pure water, 25° C.; for pH (1 hr) / S 1 hr: one hour; for S 24 hrs: 24 hours equilibration
Protocol: Using a similar strategy as described above, these salts were prepared by evaporation from a solution of free base and acid in a solvent (e.g., methanol-dichloromethane 1:1, ethyl acetate-dichloromethane 1:2, isopropanol, and the like). If necessary, an amorphous salt produced in this way was crystallized by stirring the amorphous material in an appropriate solvent (e.g., ethyl acetate, acetonitrile, and the like).

[4] = Example 21 crossover pharmacokinetics of mono-tosylate and di-tosylate tablets in fasted dogs; format: in vivo, beagle dogs; conditions: for Individual plasma concentration of Compound I: individual dogs 1-5; for Individual plasma concentration of Compound I / Mean plasma concentration of Compound I: phase 2, di-tosylate tablet 200 mg PO; for AUC0-last / AUC0-rt / Cmax / tmax: Example 21, fasted dogs, 200 mg tablet PO
Protocol: Pharmacokinetics parameters of formulations of Compound I and its salts in dogs were determined by orally administering a test formulation tablet at 200 mg of active (Compound I or salt) per dog.
Blood samples were taken at various times after administration, plasma prepared, and submitted to analysis for parent drug using a qualified LC-MS-MS assay. Pharmacokinetics parameters derived from the plasma analytical data were determined using non-compartmental analysis.
Pharmacokinetics of Compound I were determined in pentagastrin-pretreated male beagle dogs following a single oral (PO) administration at 200 mg/tablet per dog in a 2-phase crossover designed study, with a washout period of at least 7 days in between each phase. Five male, non-naive, purebred beagle dogs were used in each phase of the 2-phase crossover study. All dogs were pretreated with pentagastrin (6 μg/kg intramuscular administrations) approximately 30 minutes before test article administration.
Two tablet formulations (mono-tosylate and di-tosylate, as described above) of test article were assessed. Animals were fasted overnight prior to PO dosing through approximately 4 hours post-dose. The tablet was administered orally, followed by approximately 10 mL of reverse osmosis water. Phase 1 animals were given tablets containing Compound I mono-tosylate, and phase 2 animals were given tablets containing Compound I di-tosylate salt. Blood samples were collected pre-dose and at 0.25, 0.5. 1. 2, 4, 8, 24, 36, and 48 hours after the oral dose. Plasma was harvested, and the concentration of Compound I in each plasma sample was determined by an LC/MS/MS assay. The assay lower limit of quantitation was 20 ng/mL for Compound I. Mean Compound I concentrations measured in plasma were used to construct semi-logarithmic plasma concentration-time curves (FIG. 1). Pharmacokinetic analysis was performed using non-compartmental methods.

[5] = Water sorption / dynamic vapor sorption (DVS) hygroscopicity; format: physicochemical
Protocol: The pKa value of Compound I free base was calculated (ACD Labs pKa DB, v10.0) as 2.12±0.33. Therefore, Compound I free base was considered as a very weak base that could be protonated by strong acids. […] A sample of Compound I free base was analyzed by powder x-ray diffraction and found to be crystalline without any readily detectable amorphous content. […] (onset temperature).
The maximum water uptake for the amorphous salt was about 40% whereas the maximum water uptake for the crystalline di-hydrochloride salt was higher, with about 54% uptake.
The hygroscopic nature of the besylate salt was examined by dynamic vapor sorption analysis (DVS). […] Below 80% relative humidity not much water was adsorbed.

[6] = Thermal stability of salt; format: physicochemical
Source text: It was produced in a crystalline form that was easy to dry, as the residual solvent content of the obtained sample was low. The particle size distribution and crystal habits found were acceptable.

[7] = Table 5: free base and crystalline salt forms
[8] = Table 4: free base and amorphous salt forms

Structure (SMILES): Cn1cc(-c2cn(-c3ccc(OC(F)(F)F)cc3)c(=O)c3ncn(C)c23)cn1 [Compound I, 1-methyl-7-(1-methyl-1H-pyrazol-4-yl)-5-(4-(trifluoromethoxy)phenyl)-1,5-dihydro-4H-imidazo[4,5-c]pyridin-4-one]
- pKa [1]: 2.5
- solubility [2]: ~80 µg/mL (≈ 205 µM)
- Solubility (24 hours) [3, 7]: 57 µg/mL
- solubility at 24 h ([3]; water, 25 °C, water, thermodynamic from solid, Table 4: free base and amorphous salt forms): 57 µg/mL

Structure (SMILES): Cc1ccc(S(=O)(=O)O)cc1.Cc1ccc(S(=O)(=O)O)cc1.Cn1cc(-c2cn(-c3ccc(OC(F)(F)F)cc3)c(=O)c3ncn(C)c23)cn1 [Di-tosylate]
- Individual plasma concentration of Compound I ([4]; 0.25 hours, fasted dogs, listed as Compound I di-tosylate salt): 1020 ng/mL and 146 ng/mL and 309 ng/mL and 29.1 ng/mL and 670 ng/mL
- Mean plasma concentration of Compound I ([4]; 0.25 hours, mean, fasted dogs): 536 ng/mL
- Individual plasma concentration of Compound I ([4]; 0.5 hours, fasted dogs, listed as Compound I di-tosylate salt): 7120 ng/mL and 1820 ng/mL and 3500 ng/mL and 636 ng/mL and 2610 ng/mL
- Mean plasma concentration of Compound I ([4]; 0.5 hours, mean, fasted dogs): 3760 ng/mL
- Individual plasma concentration of Compound I ([4]; 1 hour, fasted dogs, listed as Compound I di-tosylate salt): 8040 ng/mL and 6510 ng/mL and 9340 ng/mL and 1600 ng/mL and 6140 ng/mL
- Mean plasma concentration of Compound I ([4]; 1 hour, mean, fasted dogs): 7510 ng/mL
- Individual plasma concentration of Compound I ([4]; 2 hours, fasted dogs, listed as Compound I di-tosylate salt): 8810 ng/mL and 11200 ng/mL and 13400 ng/mL and 1580 ng/mL and 8110 ng/mL
- Mean plasma concentration of Compound I ([4]; 2 hours, mean, fasted dogs): 10400 ng/mL
- Individual plasma concentration of Compound I ([4]; 4 hours, fasted dogs, listed as Compound I di-tosylate salt): 6820 ng/mL and 10500 ng/mL and 13100 ng/mL and 1040 ng/mL and 6440 ng/mL
- Mean plasma concentration of Compound I ([4]; 4 hours, mean, fasted dogs): 9220 ng/mL
- Individual plasma concentration of Compound I ([4]; 8 hours, fasted dogs, listed as Compound I di-tosylate salt): 2700 ng/mL and 5620 ng/mL and 5860 ng/mL and 368 ng/mL and 2040 ng/mL
- Mean plasma concentration of Compound I ([4]; 8 hours, mean, fasted dogs): 4060 ng/mL
- Individual plasma concentration of Compound I ([4]; 24 hours, fasted dogs, listed as Compound I di-tosylate salt): 231 ng/mL and 1800 ng/mL and 530 ng/mL and 35.0 ng/mL and 30.0 ng/mL
- Mean plasma concentration of Compound I ([4]; 24 hours, mean, fasted dogs): 648 ng/mL
- Individual plasma concentration of Compound I ([4]; 36 hours, fasted dogs, listed as Compound I di-tosylate salt): BLQ (4×) and 273 ng/mL
- Mean plasma concentration of Compound I ([4]; 36 hours, mean, fasted dogs): 273 ng/mL
- Individual plasma concentration of Compound I ([4]; 48 hours, fasted dogs, listed as Compound I di-tosylate salt): BLQ (4×) and 21.5 ng/mL
- Mean plasma concentration of Compound I ([4]; 48 hours, mean, fasted dogs): 21.5 ng/mL
- AUC0-last ([4]; individual subjects): 62700 ng·h/mL and 129000 ng·h/mL and 113000 ng·h/mL and 9680 ng·h/mL and 47200 ng·h/mL
- AUC0-rt ([4]; individual subjects): 64100 ng·h/mL and 129000 ng·h/mL and 116000 ng·h/mL and 9890 ng·h/mL and 47300 ng·h/mL
- Cmax ([4]; individual subjects): 8810 ng/mL and 11200 ng/mL and 13400 ng/mL and 1600 ng/mL and 8110 ng/mL
- tmax ([4]; individual subjects): 2.00 h and 1.00 h
- AUC0-last ([4]; mean): 88000 ng·h/mL
- AUC0-rt ([4]; mean): 89100 ng·h/mL
- Cmax ([4]; mean): 10400 ng/mL
- tmax ([4]; mean): 2.00 h
- Individual plasma concentration of Compound I ([4]; Pre-dose, fasted pentagastrin-pretreated dogs): BLQ
- Mean plasma concentration of Compound I ([4]; Pre-dose, mean, fasted dogs): BLQ

Structure (SMILES): Br.Br.Cn1cc(-c2cn(-c3ccc(OC(F)(F)F)cc3)c(=O)c3ncn(C)c23)cn1 [di-HBr crystalline]
- Solubility (24 hours) [3, 7]: 480 µg/mL
- pH (24 hrs) [3]: 1.6
- pH (1 hr) [3]: 1.6
- S 24 hrs [3]: 0.48 mg/mL
- S 1 hr [3]: 0.54 mg/mL

Structure (SMILES): Cl.Cl.Cn1cc(-c2cn(-c3ccc(OC(F)(F)F)cc3)c(=O)c3ncn(C)c23)cn1 [di-HCl crystalline]
- Solubility (24 hours) [3, 7]: 760 µg/mL
- pH (24 hrs) [3]: 1.5
- pH (1 hr) [3]: 1.3
- S 24 hrs [3]: 0.76 mg/mL
- S 1 hr [3]: 1.14 mg/mL

Structure (SMILES): Cn1cc(-c2cn(-c3ccc(OC(F)(F)F)cc3)c(=O)c3ncn(C)c23)cn1.Cn1cc(-c2cn(-c3ccc(OC(F)(F)F)cc3)c(=O)c3ncn(C)c23)cn1.O=S(=O)(O)CCS(=O)(=O)O [hemi-edisylate]
- reversibility of water adsorption within the timeframe of observation [5]: not reversible
- Solubility (24 hours) [3, 7]: 990 µg/mL
- pH (24 hrs) [3]: 1.48
- pH (1 hr) [3]: 1.42
- S 24 hrs [3]: 0.99 mg/mL
- S 1 hr [3]: 1.09 mg/mL

Structure (SMILES): Cn1cc(-c2cn(-c3ccc(OC(F)(F)F)cc3)c(=O)c3ncn(C)c23)cn1.Cn1cc(-c2cn(-c3ccc(OC(F)(F)F)cc3)c(=O)c3ncn(C)c23)cn1.O=S(=O)(O)c1cccc2c(S(=O)(=O)O)cccc12 [hemi-napadisylate]
- reversibility of water adsorption within the timeframe of observation [5]: not reversible
- Solubility (24 hours) [3, 7]: 1830 µg/mL
- pH (24 hrs) [3]: 1.53
- pH (1 hr) [3]: 1.53
- S 24 hrs [3]: 1.83 mg/mL
- S 1 hr [3]: 2.76 mg/mL

Structure (SMILES): Br.Cn1cc(-c2cn(-c3ccc(OC(F)(F)F)cc3)c(=O)c3ncn(C)c23)cn1 [mono-HBr amorphous]
- Solubility (24 hours) [3, 8]: 620 µg/mL
- pH (24 hrs) [3]: 1.6
- S 24 hrs [3]: 0.62 mg/mL

Structure (SMILES): Br.Cn1cc(-c2cn(-c3ccc(OC(F)(F)F)cc3)c(=O)c3ncn(C)c23)cn1 [mono-HBr crystalline]
- pH (24 hrs) [3]: 1.9
- S 24 hrs [3]: 0.31 mg/mL

Next, values leading:

- Solubility (24 hours) [3, 8]: 700 µg/mL
- pH (24 hrs) [3]: 1.6
- S 24 hrs [3]: 0.70 mg/mL
Structure (SMILES): Cl.Cn1cc(-c2cn(-c3ccc(OC(F)(F)F)cc3)c(=O)c3ncn(C)c23)cn1 [mono-HCl amorphous]

- pH (24 hrs) [3]: 1.6
- S 24 hrs [3]: 0.42 mg/mL
Structure (SMILES): Cl.Cn1cc(-c2cn(-c3ccc(OC(F)(F)F)cc3)c(=O)c3ncn(C)c23)cn1 [mono-HCl crystalline]

- pH (24 hrs) [3]: 1.9
- S 24 hrs [3]: 0.33 mg/mL
Structure (SMILES): Cn1cc(-c2cn(-c3ccc(OC(F)(F)F)cc3)c(=O)c3ncn(C)c23)cn1.O=[N+]([O-])O [mono-nitrate amorphous]

- pH (24 hrs) [3]: 1.8
- pH (1 hr) [3]: 1.8
- S 24 hrs [3]: 0.38 mg/mL
- S 1 hr [3]: 0.42 mg/mL
Structure (SMILES): Cn1cc(-c2cn(-c3ccc(OC(F)(F)F)cc3)c(=O)c3ncn(C)c23)cn1.O=[N+]([O-])O [mono-nitrate crystalline]

- Solubility (24 hours) [3, 8]: 840 µg/mL
- pH (24 hrs) [3]: 1.4
- pH (1 hr) [3]: 1.2
- S 24 hrs [3]: 0.84 mg/mL
Structure (SMILES): Cn1cc(-c2cn(-c3ccc(OC(F)(F)F)cc3)c(=O)c3ncn(C)c23)cn1.O=S(=O)(O)O [mono-sulfate amorphous]

- thermal stability [6]: good thermal stability
- Solubility (24 hours) [3, 7]: 1540 µg/mL
- pH (24 hrs) [3]: 1.2
- pH (1 hr) [3]: 1.1
- S 24 hrs [3]: 1.54 mg/mL
- S 1 hr [3]: 1.73 mg/mL
Structure (SMILES): Cn1cc(-c2cn(-c3ccc(OC(F)(F)F)cc3)c(=O)c3ncn(C)c23)cn1.O=S(=O)(O)O [mono-sulfate crystalline]
